Among the test systems are NCI-H460 lung; HOP-62 NSCLC; SNB-19 CNS; SK-OV-3 ovarian; HOP-92 NSCLC; NCI/ADR-RES ovarian; KM12 colon; U251 CNS; HCC-2998 colon; OVCAR-5 ovarian.
Assay in all cases: DTP human tumour cell line panel, 48 h

Molecules are shown by their SMILES. Where “and” joins values, the source holds several entries; their conditions need not be identical. Identical values can stand only once.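 Method: 48-hour compound exposure of cells in 96-well plates, five concentrations, linear interpolation of endpoints. GI50 marks 50% less growth. TGI marks complete inhibition of growth.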

The GI50 is the concentration at which growth is held to half of that of the control. One may read the TGI as the concentration at which net growth stops. As for `O=C1NC(=NCc2ccccc2Cl)S/C1=C\c1ccc2ncccc2c1`, the GI50 is 10.6 µM with NCI-H460 lung; 16 µM with HOP-62 NSCLC; 13200 nM with SNB-19 CNS; 15.6 µM in the assay on SK-OV-3 ovarian; 5.85 µM with HOP-92 NSCLC; above 25000 nM with NCI/ADR-RES ovarian. The GI50 with KM12 colon is above 21.8 µM; with U251 CNS it was 6440 nM; in the assay on HCC-2998 colon, above 25000 nM; in the assay with OVCAR-5 ovarian, above 25000 nM. In addition, the TGI was above 25 µM with NCI-H460 lung; above 25 µM with HOP-62 NSCLC; above 25 µM with SNB-19 CNS; above 25 µM in the assay on SK-OV-3 ovarian; above 22.1 µM in the assay on HOP-92 NSCLC; above 25000 nM in the assay on NCI/ADR-RES ovarian. The TGI with KM12 colon, in the assay with U251 CNS, in the assay with HCC-2998 colon and in the assay with OVCAR-5 ovarian was above 25 µM throughout.
On to `Cc1cc(=O)oc2ccc(OC/C=C3\CCC(=O)O3)cc12`, for which the GI50 was 17.3 µM with NCI-H460 lung; 13.5 µM in the assay on HOP-62 NSCLC; 13000 nM in the assay on SNB-19 CNS; 13.1 µM in the assay on SK-OV-3 ovarian; 5 µM with HOP-92 NSCLC; 13700 nM in the assay with NCI/ADR-RES ovarian. The GI50 in the assay with KM12 colon is 7.76 µM; in the assay with U251 CNS it was 12200 nM; with HCC-2998 colon, 14700 nM; in the assay with OVCAR-5 ovarian, 14800 nM. Moreover, the concentration for total growth inhibition (TGI) with NCI-H460 lung came to 43 µM; with HOP-62 NSCLC, 29.9 µM; in the assay on SNB-19 CNS it was 30.8 µM; in the assay with SK-OV-3 ovarian, 26.2 µM; in the assay on HOP-92 NSCLC, 24.4 µM; in the assay on NCI/ADR-RES ovarian, 32400 nM. For the same molecule, the total growth inhibition concentration (TGI) with KM12 colon is 25.5 µM; in the assay with U251 CNS it was 24.6 µM; with HCC-2998 colon it was 28.1 µM; in the assay with OVCAR-5 ovarian it was 31.2 µM.
As for `COc1ccc2c(c1)OC(N)=C(C#N)C2c1cc(OC)c(OC)c(OC)c1` (stereo unspecified), the concentration for 50% growth inhibition (GI50) in the assay on NCI-H460 lung is 0.0345 µM; in the assay on HOP-62 NSCLC it was 0.0548 µM; in the assay with SNB-19 CNS, 86.4 nM; with SK-OV-3 ovarian, 0.0304 µM; in the assay with HOP-92 NSCLC, 0.169 µM; in the assay with NCI/ADR-RES ovarian, 19.9 nM. The GI50 was 32.9 nM in the assay on U251 CNS, 39.8 nM in the assay with HCC-2998 colon and 59 nM in the assay with OVCAR-5 ovarian. The TGI in the assay with HOP-62 NSCLC was 33.2 µM; in the assay with SNB-19 CNS, above 100 µM; in the assay on SK-OV-3 ovarian it was 1.11 µM; in the assay with HOP-92 NSCLC it was above 100 µM; with NCI/ADR-RES ovarian, 44.9 nM; in the assay on U251 CNS it was 1.48 µM. Besides, the TGI in the assay on HCC-2998 colon and in the assay with OVCAR-5 ovarian was above 100 µM each time.
As to `COC1=C(N)C(=O)c2nc(-c3nc(C(=O)O)c(C)c(-c4ccc(OC)c(OC)c4O)c3N)ccc2C1=O`, the TGI in the assay with HOP-62 NSCLC is 0.0407 µM and < 0.01 µM; in the assay on SNB-19 CNS it was 0.00354 µM and 0.0228 µM and < 0.011 µM; in the assay with SK-OV-3 ovarian, 0.0272 µM and 0.0174 µM; with HOP-92 NSCLC, 0.0442 µM and 0.428 µM; with NCI/ADR-RES ovarian it was 15.1 nM and 94 nM and 16.9 nM. Also, the GI50 with HOP-92 NSCLC was 0.00666 µM and < 0.0284 µM; in the assay with NCI/ADR-RES ovarian it was 1.21 nM and 8.09 nM; with HCC-2998 colon it was 1.21 nM and 4.68 nM; with OVCAR-5 ovarian it was 3.32 nM and 3.52 nM and 14.3 nM.
On to `COc1cc([N+](=O)[O-])c(OC)cc1-c1nc2sc(C)c(C)n2c1/C(N)=N/C(=N)N`, for which the GI50 with NCI-H460 lung is above 100 µM; in the assay on HOP-62 NSCLC, above 100 µM; in the assay with SNB-19 CNS, 2330 nM; with HOP-92 NSCLC, 51.6 µM; in the assay with NCI/ADR-RES ovarian, above 100000 nM; in the assay on KM12 colon it was above 100 µM. Also, the GI50 was 2290 nM in the assay with U251 CNS, above 100000 nM with HCC-2998 colon and above 100000 nM with OVCAR-5 ovarian. The total growth inhibition concentration (TGI) in the assay on NCI-H460 lung is above 100 µM; in the assay on HOP-62 NSCLC, above 100 µM; in the assay on SNB-19 CNS, above 100 µM; in the assay on HOP-92 NSCLC, above 100 µM; with NCI/ADR-RES ovarian, above 100000 nM; with KM12 colon it was above 100 µM. Further, the concentration for total growth inhibition (TGI) in the assay on U251 CNS, in the assay on HCC-2998 colon and in the assay on OVCAR-5 ovarian was above 100 µM throughout.
As to `COc1ccc(-c2cc(=O)c3c(O)c(OC)c(OC)c(OC)c3o2)cc1OC`, the total growth inhibition concentration (TGI) was 82.9 µM in the assay on HOP-62 NSCLC; above 100 µM with SNB-19 CNS; 81 µM with SK-OV-3 ovarian; 28 µM in the assay with HOP-92 NSCLC; above 100000 nM in the assay with NCI/ADR-RES ovarian; above 100 µM with KM12 colon. In addition, the concentration for total growth inhibition (TGI) with U251 CNS, in the assay with HCC-2998 colon and with OVCAR-5 ovarian was above 100 µM each time.
With `CC(C)(C)c1cc(C(=O)Nc2ccccc2C(=O)NCCN)cc(C(C)(C)C)c1`, the GI50 is 1.94 µM with NCI-H460 lung; 1.67 µM in the assay with HOP-62 NSCLC; 1930 nM in the assay with SNB-19 CNS; 1.9 µM in the assay with SK-OV-3 ovarian; 1930 nM in the assay with NCI/ADR-RES ovarian; 1.79 µM with KM12 colon. In addition, the GI50 in the assay on U251 CNS was 1890 nM; in the assay on HCC-2998 colon, 1830 nM; with OVCAR-5 ovarian, 1780 nM. Further, the TGI was 3.67 µM in the assay with NCI-H460 lung; 3.21 µM with HOP-62 NSCLC; 3.75 µM in the assay with SNB-19 CNS; 3.69 µM in the assay on SK-OV-3 ovarian; 3890 nM in the assay with NCI/ADR-RES ovarian; 3.4 µM with KM12 colon. Moreover, the results for the TGI in the assay with U251 CNS, in the assay with HCC-2998 colon and in the assay with OVCAR-5 ovarian were 3.42 µM, 3.4 µM and 3.81 µM, respectively.

The record behind these values is PubChem BioAssay (NCI).
